{"source": "patent US6022969A", "about": "“Compositions and methods for treating mast-cell mediated conditions” (AXYS Pharmaceuticals, Inc., priority 1995, dated 2000)", "key": {"tryptase": {"system": "tryptase", "test": "In vitro tryptase inhibition assay (hydrolysis of tosyl-Gly-Pro-Lys-p-nitroanilide)", "type": "biochemical, human", "conditions": "apparent affinity comparable to enzyme concentration", "description": "The compounds to be assayed (approximately 1 mg) were dissolved in 200 μL dimethylsulfoxide (DMSO) and diluted 1:10 into buffer containing 50 millimolar (mM) Tris-HCl (pH 8.2), 100 mM sodium chloride, and 0.05% polyoxyethylenesorbitan monolaurate (Tween-20®, available from Sigma, St. Louis, Mo.). Seven additional threefold dilutions were made from the initial dilution into the same buffer supplemented with 10% DMSO. Aliquots (50 microliters, μL) from each of the eight dilutions in the series were transferred to individual wells in a 96-well U-bottom microtiter plate. 25 μL of a stock solution of tryptase was added to each well and the samples were mixed and incubated for one hour at room temperature (tryptase was purified from human lung and skin tissue preparations, HMC-1 (human mast cell line) and also obtained from commercial sources (ICN Biomedicals, Irvine, Calif.; Athens Research & Technology, Athens, Ga.)). […] The tryptase solution was prepared by placing 60 μg/mL of tryptase into solution with 10 mM MES (2-[N-Morpholino]ethane sulfonic acid) containing 2 mM CaCl2, 20% glycerol and 50 μg/mL heparin. The enzyme reaction was initiated with the addition of the synthetic tripeptide substrate, tosyl-Gly-Pro-Lys-p-nitroanilide (available from Sigma, 25 μL; 0.5 mM final concentration).\nHowever, Ki ' varies with the enzyme concentration used in the enzyme assay. […] The y-intercept of a replot of IC50 (ordinate) versus tryptase concentration (abscissa) produces a value for Ki '.\nThe inhibition constants (Ki ', micromolar (μM)) were determined for the compounds of the present invention."}, "antigen-challenged sheep [1]": {"system": "antigen-challenged sheep", "test": "Allergic sheep model of asthma: Specific Lung Resistance (SRL) after antigen challenge", "type": "in vivo", "description": "(§1) The initial asthmatic response can be evaluated in guinea pigs, and dogs, and particularly, with a basenji-greyhound cross strain which develops nonspecific airway hyperresponsiveness to numerous nonallergenic substances, such as methacholine and citric acid. […] In dual responding animals, the initial asthmatic response (IAR) is followed by a late asthmatic response (LAR) at 6-8 hours post-exposure.\nThe allergic sheep model (see below) was used to evaluate the potential antiasthmatic effects of the compounds of the present invention.\n(§2) The allergic sheep model of asthma was employed for he in vivo evaluation of the compounds of the invention as antiasthmatics. These methods have been published previously (see Abraham et al. (1983) Am. Rev. Respir. Dis. 128:839-844; Allegra et al. (1983) J. Appl. Physiol. 55:726-730; Russi et al. (1985) J. Appl. Physiol. 59:1416-1422; Soler et al. (1989) J. Appl. Physiol. 67:406-413. Each sheep serves as its own control. Body weights for these animals ranged from 20-50 kilograms.\nThe peak early response was taken as the average of the maximum values occurring immediately post-challenge. Peak late responses were calculated by averaging the maximum response values obtained for each animal within the 6-8 hour time period. This approach is conservative and eliminates the possible reduction in the late response due simply to averaging.\nThree doses of the compound (2 mg in 10 mL water) were administered to sheep through an intergastric tube 1 hr before challenge, 4 hours post-challenge, and 24 hours post-challenge."}, "antigen-challenged sheep [2]": {"system": "antigen-challenged sheep", "test": "Allergic sheep model of asthma: airway hyperresponsiveness to carbachol (PC400) 24 hours after antigen challenge", "type": "in vivo", "description": "as §1, §2\nTwenty-four hours after antigen challenge in both the control and drug trial, the sheep developed airway hyperresponsiveness. Airway hyperresponsiveness is expressed as PC400, the concentration of carbachol that causes a 400% increase in SRL; therefore, a decrease in PC400 indicates hyperresponsiveness. […] The number of breath units fell to 12 for those animals in the control group."}}}
{"smiles": "N=C(N)Nc1ccc(CNC(=O)N2CCN(C(=O)O[C@H]3CCC[C@@H](OC(=O)N4CCN(C(=O)NCc5ccc(NC(=N)N)cc5)CC4)CCC3)CC2)cc1", "note": "[Compound 3, cis-1,5-Cyclooctylene bis[4-(4-guanidinobenzylcarbamoyl)-1-piperazinecarboxylate]]", "values": [{"measurement": "type of tryptase inhibition", "setting": "tryptase", "value": "tight binding inhibitor"}, {"measurement": "early and late responses to antigen challenge, SRL (aerosol)", "setting": "antigen-challenged sheep [1]; Compound 3: aerosol 50 μg 0.5 h before, 4 h and 24 h after challenge, n=3 (FIG. 1), Compound 2: aerosol 3 x 0.1 mg (FIG. 5)", "value": "significant attenuation of the early and late responses to the antigen challenge"}, {"measurement": "early and late phase response to antigen challenge, SRL (aerosol pretreatment)", "setting": "antigen-challenged sheep [1]; aerosol predosing 0.5 mg/day x 3 days plus 0.5 mg 0.5 h before challenge (FIG. 7)", "value": "significant attenuation of early and late phase response to antigen challenge"}, {"measurement": "early phase SRL (oral)", "setting": "antigen-challenged sheep [1]; intragastric 2 mg in 10 mL water 1 h before, 4 h and 24 h post-challenge, untreated about 250", "value": "about 175"}, {"measurement": "late phase SRL (oral)", "setting": "antigen-challenged sheep [1]; intragastric 2 mg in 10 mL water 1 h before, 4 h and 24 h post-challenge, untreated over 200", "value": "about 50"}, {"measurement": "anti-asthmatic properties when delivered orally", "setting": "antigen-challenged sheep [1]; oral, 3 x 2 mg", "value": "significant anti-asthmatic properties when delivered orally"}, {"measurement": "airway function in antigen challenged sheep (aerosol)", "setting": "antigen-challenged sheep [2]; aerosol 3 x 50 μg (FIG. 2)", "value": "significant improvement in airway function"}, {"measurement": "airway hyperresponsiveness, PC400 (aerosol)", "setting": "antigen-challenged sheep [2]; aerosol 3 x 50 μg, 24 h after challenge, baseline 32, control 12 (FIG. 2)", "value": "~32", "unit": "breath units"}, {"measurement": "airway function / PC400 (aerosol pretreatment)", "setting": "antigen-challenged sheep [2]; aerosol predosing 0.5 mg/day x 3 days plus 0.5 mg 0.5 h before challenge (FIG. 8)", "value": "significant improvement in airway function"}, {"measurement": "onset of hyperresponsiveness (PC400, aerosol), result in words", "setting": "antigen-challenged sheep [2]; aerosol, 24 h after antigen challenge, Compound 3 3 x 50 μg (FIG. 2), Compound 2 3 x 0.1 mg (FIG. 6)", "value": "block the onset of hyperresponsiveness"}]}
